Laboratory results reported in patent publication US11407748B2, “Substituted pyrido[1,2-a]pyrimidines and pyrazino[1,2-a]pyrimidines for enhancing AMPA receptor function” (Takeda Pharmaceutical Company Limited, priority 2017, dated 2022).

Legend:
hGluR1 flip = molecular target: T1, hGluR1 flip (Homo sapiens, UniProt P42261); assay: AMPA receptor function-enhancing activity using calcium influx as index; assay type: cell-based; settings: test compound 30 μM with 3 mM glutamic acid; CHO-K1/GluR1 flip/stargazin-expressing cells; 100% = 3 mM glutamic acid + 300 μM cyclothiazide, 0% = 3 mM glutamic acid alone
T1 construct: expressed in transfected cells; host or cells: CHO-K1
T1 sequence (P42261 19-906 isoform P42261-2 limits assumed): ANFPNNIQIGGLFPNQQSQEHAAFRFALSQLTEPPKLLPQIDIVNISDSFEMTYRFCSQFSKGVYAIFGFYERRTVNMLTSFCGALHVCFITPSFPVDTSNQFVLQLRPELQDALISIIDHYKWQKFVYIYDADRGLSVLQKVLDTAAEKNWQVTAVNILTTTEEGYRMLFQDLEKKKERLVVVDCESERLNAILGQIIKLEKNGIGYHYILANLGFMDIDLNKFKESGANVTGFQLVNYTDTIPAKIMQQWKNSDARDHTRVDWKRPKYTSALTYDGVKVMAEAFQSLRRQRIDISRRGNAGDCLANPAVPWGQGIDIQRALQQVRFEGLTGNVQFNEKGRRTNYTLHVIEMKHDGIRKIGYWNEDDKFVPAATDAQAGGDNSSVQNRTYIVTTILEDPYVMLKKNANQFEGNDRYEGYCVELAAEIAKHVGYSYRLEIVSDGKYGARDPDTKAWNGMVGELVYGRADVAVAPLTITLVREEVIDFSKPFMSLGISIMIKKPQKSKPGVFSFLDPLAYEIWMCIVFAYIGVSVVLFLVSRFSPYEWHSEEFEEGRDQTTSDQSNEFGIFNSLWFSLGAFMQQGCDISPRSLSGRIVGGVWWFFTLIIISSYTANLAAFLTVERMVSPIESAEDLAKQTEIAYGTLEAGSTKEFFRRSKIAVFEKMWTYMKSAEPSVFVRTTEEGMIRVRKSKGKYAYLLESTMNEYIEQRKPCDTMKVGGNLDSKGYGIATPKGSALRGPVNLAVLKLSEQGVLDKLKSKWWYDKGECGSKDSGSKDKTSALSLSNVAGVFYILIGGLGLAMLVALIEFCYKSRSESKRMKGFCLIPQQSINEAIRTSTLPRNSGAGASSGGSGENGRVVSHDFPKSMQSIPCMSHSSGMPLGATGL
T1 sequence (Q9Y698 whole entry partner): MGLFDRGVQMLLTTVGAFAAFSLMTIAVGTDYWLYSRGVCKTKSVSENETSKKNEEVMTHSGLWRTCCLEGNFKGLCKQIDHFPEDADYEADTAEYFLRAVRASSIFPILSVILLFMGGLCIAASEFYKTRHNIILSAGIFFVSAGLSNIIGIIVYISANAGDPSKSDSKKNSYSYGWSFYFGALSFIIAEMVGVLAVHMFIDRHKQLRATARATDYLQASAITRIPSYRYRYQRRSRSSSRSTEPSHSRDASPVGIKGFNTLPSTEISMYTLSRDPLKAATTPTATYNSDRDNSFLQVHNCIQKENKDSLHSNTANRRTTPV
Procedure, shortened: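 CHO-K1 cells co-expressing human GluR1 flip and stargazin, loaded with Calcium5 dye with 1.25 mM probenecid. Test compound at 30 μM added with 3 mM glutamate; fluorescence followed 3 min. Activity % scaled between glutamate alone (0%) and glutamate plus 300 μM cyclothiazide (100%).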

Long Evans rats = assay: Novel object recognition test; assay type: in vivo, rat; settings: 1 mg/kg p.o.; for Novel Object Interaction (%): 1 hr before acquisition trial and 1 hr before retention trial, retention trial 48 hr after acquisition, mean ± standard error; for novel object interaction (result in words): rats
Text: Experimental Example 2 Novel Object Recognition Test (1) Animals
Male Long Evans rats were supplied by Japan SLC, and used at 7-week-old in the experiments. After arrival to the vivarium, animals were allowed a minimum of 1 week for acclimation. They were housed under a 12:12-h light/dark cycle in a temperature- and humidity-controlled laboratory and allowed food and water ad libitum.
A test compound was suspended in 0.5% methylcellulose in distilled water and orally administered (p.o.). All test compounds were dosed in a volume of 2 mL/kg body weight for rats.
(3) Novel Object Recognition Test
Novel object recognition test is a test system utilizing the novel object preference characteristics of rodents. This novel object recognition test consists of two trials, “acquisition trial” and “retention trial”, and, when an interval between these two trials is short, rodents spend a longer period for novel object exploration behaviors, and the preference dissipates as the interval gets longer. From this, the behavioral change in the novel object recognition test is considered to reflect the rodents' memory of the object during the acquisition trial. In this experimental example, the retention trial was carried out 48 hr after the acquisition trial. On the day before the test, for acclimation, Long-Evans ats were allowed to freely move about the test box (40×40×50 cm) for 10 minutes. On the test day, the rats were acclimated to the test room for about 1 hr prior to the test. The test compound (Compound A (Example 14), Compound B (Example 48), 1 mg/kg) were orally administered to the rats twice 1 hr before the acquisition trial and 1 hr before the retention trial. For the acquisition trial, two identical objects (A1, A2) were placed in the test box. The rats were put in the test box for 3 min, and the duration contacting each object was measured. The retention trial was carried out 48 hr after the acquisition trial. For the retention trial, the familiar object (A3) used for the acquisition trial and the novel object (B) different shape from A3 were placed in the test box. The rats were put in the test box for 3 min. The duration contacting each object in the acquisition trial and the retention trial, and the novel object interaction (%) was calculated. The novel object interaction (%) was expressed as (the duration contacting the novel object)/[(the duration contacting the novel object)+(the duration contacting the familiar object)]×100(%) at mean±standard error.

Row | SMILES | activation at 30 µM (hGluR1 flip) | other results
1 | O=C(c1ccc(-c2cccn3c(=O)c(Br)c(C(F)(F)F)nc23)cc1)N1CCOCC1 [Example 14, 3-bromo-9-(4-(morpholin-4-ylcarbonyl)phenyl)-2-(trifluoromethyl)-4H-pyrido[1,2-a]pyrimidin-4-one] | 94.3% | Novel Object Interaction (%) (Long Evans rats): 61.94 ± 2.33%; novel object interaction (result in words) (Long Evans rats): increased the novel object interaction
2 | C[C@H]1CN(C(=O)c2ccc(-c3cccn4c(=O)c(Br)c(C(F)(F)F)nc34)cc2)CCO1 [Example 48, 3-bromo-9-(4-(((2S)-2-methylmorpholin-4-yl)carbonyl)phenyl)-2-(trifluoromethyl)-4H-pyrido[1,2-a]pyrimidin-4-one] | 88.1% | Novel Object Interaction (%) (Long Evans rats): 61.42 ± 2.61%; novel object interaction (result in words) (Long Evans rats): increased the novel object interaction
3 | O=C(c1ccc(-c2cccn3c(=O)c(Br)c(C(F)(F)F)nc23)cc1)N1CCOCC(F)(F)C1 [Example 119, 3-bromo-9-(4-((6,6-difluoro-1,4-oxazepan-4-yl)carbonyl)phenyl)-2-(trifluoromethyl)-4H-pyrido[1,2-a]pyrimidin-4-one] | 71% | –
4 | N#CC1CCN(C(=O)c2ccc(-c3cccn4c(=O)c(Br)c(C(F)(F)F)nc34)cc2)C1 (stereo not shown) [Example 120, 1-(4-(3-bromo-4-oxo-2-(trifluoromethyl)-4H-pyrido[1,2-a]pyrimidin-9-yl)benzoyl)pyrrolidine-3-carbonitrile] | 71.5% | –
5 | Cc1c(C(F)(F)F)nc2c(-c3ccc(C(=O)N4CCC(C#N)C4)cc3)cccn2c1=O (stereo not shown) [Example 121, 1-(4-(3-methyl-4-oxo-2-(trifluoromethyl)-4H-pyrido[1,2-a]pyrimidin-9-yl)benzoyl)pyrrolidine-3-carbonitrile] | 84.4% | –
6 | O=C(N[C@H]1CCCOC1)c1ccc(-c2cccn3c(=O)cc(C(F)(F)F)nc23)cc1 [Example 122, 4-(4-oxo-2-(trifluoromethyl)-4H-pyrido[1,2-a]pyrimidin-9-yl)-N-((3S)-tetrahydro-2H-pyran-3-yl)benzamide] | 71.4% | –
7 | O=C(NC1CCOCC1)c1ccc(-c2cccn3c(=O)cc(C(F)(F)F)nc23)cc1 [Example 123, 4-(4-oxo-2-(trifluoromethyl)-4H-pyrido[1,2-a]pyrimidin-9-yl)-N-(tetrahydro-2H-pyran-4-yl)benzamide] | 83.2% | –
8 | O=C(NC1CCOCC1)c1ccc(-c2cccn3c(=O)c(Br)c(C(F)(F)F)nc23)cc1F [Example 124, 4-(3-bromo-4-oxo-2-(trifluoromethyl)-4H-pyrido[1,2-a]pyrimidin-9-yl)-2-fluoro-N-(tetrahydro-2H-pyran-4-yl)benzamide] | 86.3% | –
9 | Cc1c(C(F)(F)F)nc2c(-c3ccc(C(=O)NC4CCOCC4)cc3)cccn2c1=O [Example 125, 4-(3-methyl-4-oxo-2-(trifluoromethyl)-4H-pyrido[1,2-a]pyrimidin-9-yl)-N-(tetrahydro-2H-pyran-4-yl)benzamide] | 86.7% | –
10 | O=C(c1ccc(-c2cccn3c(=O)c(Br)c(C(F)(F)F)nc23)cc1)N1CCOC2CC21 (stereo not shown) [Example 127, 3-bromo-9-(4-(2-oxa-5-azabicyclo[4.1.0]hept-5-ylcarbonyl)phenyl)-2-(trifluoromethyl)-4H-pyrido[1,2-a]pyrimidin-4-one] | 74.7% | –
11 | O=C(c1ccc(-c2cccn3c(=O)c(Br)c(C(F)(F)F)nc23)cc1)N1CCOC2CC21 (stereo not shown) [Example 128, 3-bromo-9-(4-(2-oxa-5 azabicyclo[4.1.0]hept-5-ylcarbonyl)phenyl)-2-(trifluoromethyl)-4H-pyrido[1,2-a]pyrimidin-4-one] | – | hGluR1 flip/30 μM (%) (hGluR1 flip): 70.9%
12 | Cc1c(C(F)(F)F)nc2c(-c3ccc(C(=O)N4CC(F)(F)C4)c(F)c3)cccn2c1=O [Example 129, 9-(4-((3,3-difluoroazetidin-1-yl)carbonyl)-3-fluorophenyl)-3-methyl-2-(trifluoromethyl)-4H-pyrido[1,2-a]pyrimidin-4-one] | 80.4% | –
13 | O=C(c1ccc(-c2cccn3c(=O)c(Br)c(C(F)(F)F)nc23)cc1F)N1CC(F)(F)C1 [Example 130, 3-bromo-9-(4-((3,3-difluoroazetidin-1-yl)carbonyl)-3-fluorophenyl)-2-(trifluoromethyl)-4H-pyrido[1,2-a]pyrimidin-4-one] | 96% | –
14 | O=C(NC1CCOCC1)c1ccc(-c2cccn3c(=O)c(Cl)c(C(F)(F)F)nc23)cc1 [Example 131, 4-(3-chloro-4-oxo-2-(trifluoromethyl)-4H-pyrido[1,2-a]pyrimidin-9-yl)-N-(tetrahydro-2H-pyran-4-yl)benzamide] | 110% | –
15 | O=C(N[C@H]1CCCOC1)c1ccc(-c2cccn3c(=O)c(Cl)c(C(F)(F)F)nc23)cc1 [Example 132, 4-(3-chloro-4-oxo-2-(trifluoromethyl)-4H-pyrido[1,2-a]pyrimidin-9-yl)-N-((3S)-tetrahydro-2H-pyran-3-yl)benzamide] | 106% | –
